Test results taken from patent US9688702B2, “Alpha-amino boronic acid derivatives, selective immunoproteasome inhibitors” (Ares Trading S.A, priority 2011, dated 2017).
Structures can show the parent of a compound that is named as a salt.

How the values were obtained:
[1] = target: LMP7 (purified human immuno proteasome) (Homo sapiens, UniProt P28062); experiment: Determination of LMP7 activity (fluorescence intensity assay, Suc-LLVY-AMC); format: biochemical; settings: for IC50: 40 μM Suc-LLVY-AMC, 37° C.
How it was run: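 Purified human immunoproteasome (0.5 nM or 0.25 nM) preincubated 30 min at 37 °C with compounds (10 μM to 38 pM) in 50 mM Tris pH 7.4, 0.03% SDS. Suc-LLVY-AMC added at 40 μM; after 90 min at 37 °C, fluorescence read at ex 350/em 450 nm.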

[2] = target: Beta5 (purified human constitutive proteasome) (Homo sapiens, UniProt P28074); experiment: Determination of Beta5 activity (fluorescence intensity assay, Suc-LLVY-AMC); format: biochemical; settings: purified human constitutive proteasome 1.0 nM, 40 μM Suc-LLVY-AMC, 37° C.
How it was run: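 Purified human constitutive proteasome (1.0 nM) was preincubated 30 min at 37 °C with compounds (10 μM to 38 pM) in 50 mM Tris pH 7.4, 0.03% SDS. Suc-LLVY-AMC (40 μM) was then added and fluorescence (ex 350/em 450 nm) read after 90 min at 37 °C.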

[3] = purified human immuno proteasome 0.5 nM
[4] = purified human immuno proteasome 0.25 nM (examples 79, 80, 83, 84, 85, 87, 88, 89, 90, 91, 93, 94, 96, 97, 101 and 110)

Row | Structure (SMILES) | Selectivity LMP7 vs Beta5 [1] | IC50 [1, 3] | IC50 [2] | IC50 [1, 4]
1 | CCc1cccc(C[C@H](NC(=O)CCn2cc(-c3cccnc3)nn2)B(O)O)c1 [Example 76, (R)-(2-(3-ethylphenyl)-1-(3-(4-(pyridin-3-yl)-1H-1,2,3-triazol-1-yl)propanamido)ethyl)boronic acid] | +++ (+++: Selectivity > 30) | < 0.05 µM | 0.5 to 5 µM | –
2 | CC(=O)N[C@@H](Cc1coc2ccccc12)B(O)O [Example 78, (R)-(1-acetamido-2-(benzofuran-3-yl)ethyl)boronic acid] | +++ (+++: Selectivity > 30) | < 0.05 µM | 0.5 to 5 µM | –
3 | COc1ccc(CCC(=O)N[C@@H](Cc2coc3ccccc23)B(O)O)cc1 [Example 79, (R)-(2-(benzofuran-3-yl)-1-(3-(4-methoxyphenyl)propanamido)ethyl) boronic acid] | +++ (+++: Selectivity > 30) | – | 0.05 to 0.5 µM | < 0.05 µM
4 | O=C(Cc1cnc[nH]1)N[C@@H](Cc1coc2ccccc12)B(O)O [Example 83, (R)-(1-(2-(1H-imidazol-5-yl)acetamido)-2-(benzofuran-3-yl)ethyl) boronic acid hydrochloride] | ++ (++: 10 < Selectivity < 30) | – | 0.05 to 0.5 µM | < 0.05 µM
5 | O=C(CCC1CCCCC1)N[C@@H](Cc1coc2ccccc12)B(O)O [Example 86, (R)-(2-(benzofuran-3-yl)-1-(3-cyclohexylpropanamido)ethyl)boronic acid] | +++ (+++: Selectivity > 30) | < 0.05 µM | 0.05 to 0.5 µM | –
6 | CN(CC(=O)N[C@@H](Cc1coc2ccccc12)B(O)O)S(C)(=O)=O [Example 91, (R)-(2-(benzofuran-3-yl)-1-(2-(N-methylmethylsulfonamido)acetamido)ethyl)boronic acid] | +++ (+++: Selectivity > 30) | – | 0.05 to 0.5 µM | < 0.05 µM
7 | O=C(CCN1CCNCC1)N[C@@H](Cc1coc2ccccc12)B(O)O [Example 92, (R)-(2-(benzofuran-3-yl)-1-(3-(piperazin-1-yl)propanamido)ethyl) boronic acid hydrochloride] | +++ (+++: Selectivity > 30) | < 0.05 µM | 0.05 to 0.5 µM | –
8 | CC(=O)N[C@@H](Cc1ccc2ccccc2c1)B(O)O [Example 95, (R)-(1-acetamido-2-(naphthalen-2-yl)ethyl)boronic acid] | +++ (+++: Selectivity > 30) | 0.05 to 0.5 µM | 0.5 to 5 µM | –
9 | O=C(CCn1cnc2ccccc21)N[C@@H](Cc1ccc2ccccc2c1)B(O)O [Example 97, (R)-(1-(3-(1H-benzo[d]imidazol-1-yl)propanamido)-2-(naphthalen-2-yl)ethyl)boronic acid] | ++ (++: 10 < Selectivity < 30) | – | < 0.05 µM | < 0.05 µM
10 | O=C(CCc1cn(-c2ccccc2)nn1)N[C@@H](Cc1ccc2ccccc2c1)B(O)O [Example 98, (R)-(2-(naphthalen-2-yl)-1-(3-(1-phenyl-1H-1,2,3-triazol-4-yl)propanamido)ethyl)boronic acid] | ++ (++: 10 < Selectivity < 30) | < 0.05 µM | 0.05 to 0.5 µM | –
11 | O=C(CCc1cn(-c2cccnc2)nn1)N[C@@H](Cc1ccc2ccccc2c1)B(O)O [Example 99, (R)-(2-(naphthalen-2-yl)-1-(3-(1-(pyridin-3-yl)-1H-1,2,3-triazol-4-yl)propanamido)ethyl)boronic acid] | +++ (+++: Selectivity > 30) | < 0.05 µM | 0.5 to 5 µM | –
12 | COc1ccc(-n2cc(CCC(=O)N[C@@H](Cc3ccc4ccccc4c3)B(O)O)nn2)cc1 [Example 100, (R)-(1-(3-(1-(4-methoxyphenyl)-1H-1,2,3-triazol-4-yl)propanamido)-2-(naphthalen-2-yl)ethyl)boronic acid] | ++ (++: 10 < Selectivity < 30) | < 0.05 µM | 0.05 to 0.5 µM | –
13 | O=C(CCn1c(=O)sc2ccccc21)N[C@@H](Cc1c[nH]c2ccccc12)B(O)O [Example 101] | +++ (+++: Selectivity > 30) | – | < 0.05 µM | < 0.05 µM
14 | Cn1ncc2cc(C[C@H](NC(=O)CCn3c(=O)sc4ccccc43)B(O)O)ccc21 [Example 102, (R)-(2-(1-methyl-1H-indazol-5-yl)-1-(3-(2-oxobenzo[d]thiazol-3(2H)-yl)propanamido)ethyl)boronic acid] | ++ (++: 10 < Selectivity < 30) | < 0.05 µM | < 0.05 µM | –
15 | Cn1ncc2cc(C[C@H](NC(=O)CCn3cc(-c4ccccc4)nn3)B(O)O)ccc21 [Example 103, (R)-(2-(1-methyl-1H-indazol-5-yl)-1-(3-(4-phenyl-1H-1,2,3-triazol-1-yl)propanamido)ethyl)boronic acid] | ++ (++: 10 < Selectivity < 30) | < 0.05 µM | < 0.05 µM | –
16 | O=C(CCn1cc(-c2ccccc2)nn1)N[C@@H](Cc1csc2ccccc12)B(O)O [Example 104, (R)-(2-(benzo[b]thiophen-3-yl)-1-(3-(4-phenyl-1H-1,2,3-triazol-1-yl)propanamido)ethyl)boronic acid] | + (+: Selectivity < 10) | < 0.05 µM | < 0.05 µM | –
17 | O=C(CCn1c(=O)sc2ccccc21)N[C@@H](Cc1csc2ccccc12)B(O)O [Example 105, (R)-(2-(benzo[b]thiophen-3-yl)-1-(3-(2-oxobenzo[d]thiazol-3(2H)-yl)propanamido)ethyl)boronic acid] | ++ (++: 10 < Selectivity < 30) | < 0.05 µM | < 0.05 µM | –

Continued, values first:

Row | Selectivity LMP7 vs Beta5 [1] | IC50 [1, 3] | IC50 [2] | IC50 [1, 4] | Structure (SMILES)
18 | +++ (+++: Selectivity > 30) | – | < 0.05 µM | < 0.05 µM | O=C(CCc1ccc(F)cc1)N[C@@H](Cc1coc2ccccc12)B(O)O [Example 80, (R)-(2-(benzofuran-3-yl)-1-(3-(4-fluorophenyl)propanamido)ethyl) boronic acid]
19 | ++ (++: 10 < Selectivity < 30) | < 0.05 µM | < 0.05 µM | – | O=C(CCc1ccccc1F)N[C@@H](Cc1coc2ccccc12)B(O)O [Example 81, (R)-(2-(benzofuran-3-yl)-1-(3-(2-fluorophenyl)propanamido)ethyl) boronic acid]
20 | ++ (++: 10 < Selectivity < 30) | < 0.05 µM | < 0.05 µM | – | COc1ccccc1CCC(=O)N[C@@H](Cc1coc2ccccc12)B(O)O [Example 82]
21 | ++ (++: 10 < Selectivity < 30) | – | < 0.05 µM | < 0.05 µM | COc1cccc(CCC(=O)N[C@@H](Cc2coc3ccccc23)B(O)O)c1 [Example 84, (R)-(2-(benzofuran-3-yl)-1-(3-(3-methoxyphenyl)propanamido)ethyl) boronic acid]
22 | +++ (+++: Selectivity > 30) | – | < 0.05 µM | < 0.05 µM | O=C(CCc1cccc(F)c1)N[C@@H](Cc1coc2ccccc12)B(O)O [Example 85, (R)-(2-(benzofuran-3-yl)-1-(3-(3-fluorophenyl)propanamido)ethyl) boronic acid]
23 | ++ (++: 10 < Selectivity < 30) | – | < 0.05 µM | < 0.05 µM | O=C(CCn1c(=O)sc2ccccc21)N[C@@H](Cc1coc2ccccc12)B(O)O [Example 87, (R)-(2-(benzofuran-3-yl)-1-(3-(2-oxobenzo[d]thiazol-3(2H)-yl)propanamido)ethyl)boronic acid]
24 | ++ (++: 10 < Selectivity < 30) | – | < 0.05 µM | < 0.05 µM | O=C(CCn1cnc2ccccc21)N[C@@H](Cc1coc2ccccc12)B(O)O [Example 88, (R)-(1-(3-(1H-benzo[d]imidazol-1-yl)propanamido)-2-(benzofuran-3-yl)ethyl)boronic acid]
25 | ++ (++: 10 < Selectivity < 30) | – | < 0.05 µM | < 0.05 µM | O=C(CCn1cc(-c2ccccc2)nn1)N[C@@H](Cc1coc2ccccc12)B(O)O [Example 89, (R)-(2-(benzofuran-3-yl)-1-(3-(4-phenyl-1H-1,2,3-triazol-1-yl)propanamido)ethyl)boronic acid]
26 | +++ (+++: Selectivity > 30) | – | < 0.05 µM | < 0.05 µM | COc1ccc(-n2cc(CCC(=O)N[C@@H](Cc3coc4ccccc34)B(O)O)nn2)cc1 [Example 90, (R)-(2-(benzofuran-3-yl)-1-(3-(1-(4-methoxyphenyl)-1H-1,2,3-triazol-4-yl)propanamido)ethyl)boronic acid]
27 | ++ (++: 10 < Selectivity < 30) | – | < 0.05 µM | < 0.05 µM | O=C(CCc1ccncc1)N[C@@H](Cc1coc2ccccc12)B(O)O [Example 93, (R)-(2-(benzofuran-3-yl)-1-(3-(pyridin-4-yl)propanamido)ethyl)boronic acid hydrochloride]
28 | +++ (+++: Selectivity > 30) | – | < 0.05 µM | < 0.05 µM | O=C(CCc1ccccc1)N[C@@H](Cc1coc2ccccc12)B(O)O [Example 94, (R)-(2-(benzofuran-3-yl)-1-(3-phenylpropanamido)ethyl)boronic acid]
29 | +++ (+++: Selectivity > 30) | – | < 0.05 µM | < 0.05 µM | O=C(CCn1c(=O)sc2ccccc21)N[C@@H](Cc1ccc2ccccc2c1)B(O)O [Example 96, (R)-(2-(naphthalen-2-yl)-1-(3-(2-oxobenzo[d]thiazol-3(2H)-yl)propanamido)ethyl)boronic acid]
